Laboratory results reported in PMC6328375 (Molecular pharmaceutics, 2017).
Where “and” joins values, the source holds several entries; their conditions need not be identical. Equal entries are not always repeated. Structures can show the parent of a compound that is named as a salt.

What was measured:
OCT1 [1] = biological target: T1, OCT1 (Homo sapiens, UniProt O15245); assay: Inhibition of [14C]-metformin uptake in HEK293 cells expressing OCT1; type: cell-based
T1 sequence (O15245 1-554): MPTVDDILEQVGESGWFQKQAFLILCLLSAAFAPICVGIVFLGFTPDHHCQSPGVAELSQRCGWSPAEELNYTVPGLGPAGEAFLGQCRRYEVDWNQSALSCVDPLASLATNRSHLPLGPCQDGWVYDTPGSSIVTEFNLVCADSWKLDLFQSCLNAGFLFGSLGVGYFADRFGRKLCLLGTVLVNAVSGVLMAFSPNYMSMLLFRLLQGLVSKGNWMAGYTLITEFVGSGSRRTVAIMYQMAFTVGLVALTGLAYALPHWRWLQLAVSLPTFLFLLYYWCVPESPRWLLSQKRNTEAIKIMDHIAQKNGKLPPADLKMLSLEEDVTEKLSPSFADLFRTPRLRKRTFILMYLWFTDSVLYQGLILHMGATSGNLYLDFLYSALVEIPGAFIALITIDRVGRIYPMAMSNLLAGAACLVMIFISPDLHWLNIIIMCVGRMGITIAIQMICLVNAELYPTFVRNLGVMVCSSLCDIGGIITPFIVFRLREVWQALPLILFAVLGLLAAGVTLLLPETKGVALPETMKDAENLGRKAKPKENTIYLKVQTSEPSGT

OCT2 [2] = biological target: T2, OCT2 (Homo sapiens, UniProt O15244); assay: Uptake in HEK293 cells overexpressing OCT2; type: in vitro ADME; conditions: for P, OCT2 / Vmax, OCT2 / P (non-saturable clearance parameter), OCT2 / Vmax (maximum uptake rate), OCT2 / Km: HEK293-OCT2, 0.1–1000 μM; for Vmax (maximum uptake rate), OCT2: estimate ± standard error (n = 6); for Km: read-out: Km (Michaelis-Menten constant), OCT2; for Time dependent uptake in HEK-OCT2 cells versus empty vector controls (HEK-P5): 5 μM MPP+ or 50 μM metformin, 1–30 min
T2 sequence (O15244 1-555): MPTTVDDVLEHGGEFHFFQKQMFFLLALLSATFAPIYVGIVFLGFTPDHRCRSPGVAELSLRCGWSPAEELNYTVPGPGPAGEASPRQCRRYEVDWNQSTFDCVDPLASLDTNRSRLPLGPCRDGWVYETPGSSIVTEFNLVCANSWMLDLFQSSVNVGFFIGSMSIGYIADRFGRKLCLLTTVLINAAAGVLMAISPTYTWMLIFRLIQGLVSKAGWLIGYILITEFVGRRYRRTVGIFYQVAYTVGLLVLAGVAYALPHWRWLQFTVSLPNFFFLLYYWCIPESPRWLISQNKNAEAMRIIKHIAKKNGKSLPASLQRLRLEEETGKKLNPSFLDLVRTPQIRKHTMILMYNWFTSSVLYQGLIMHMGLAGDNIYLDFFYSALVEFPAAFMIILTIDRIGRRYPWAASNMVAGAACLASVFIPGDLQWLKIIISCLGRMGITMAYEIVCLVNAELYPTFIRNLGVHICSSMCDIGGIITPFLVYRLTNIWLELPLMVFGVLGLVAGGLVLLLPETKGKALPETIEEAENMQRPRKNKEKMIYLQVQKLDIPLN

OCT3 = biological target: T3, OCT3 (Homo sapiens, UniProt O75751); assay: Uptake in HEK293 cells stably overexpressing OCT3; type: in vitro ADME; conditions: 100 μM
T3 sequence (O75751 1-556): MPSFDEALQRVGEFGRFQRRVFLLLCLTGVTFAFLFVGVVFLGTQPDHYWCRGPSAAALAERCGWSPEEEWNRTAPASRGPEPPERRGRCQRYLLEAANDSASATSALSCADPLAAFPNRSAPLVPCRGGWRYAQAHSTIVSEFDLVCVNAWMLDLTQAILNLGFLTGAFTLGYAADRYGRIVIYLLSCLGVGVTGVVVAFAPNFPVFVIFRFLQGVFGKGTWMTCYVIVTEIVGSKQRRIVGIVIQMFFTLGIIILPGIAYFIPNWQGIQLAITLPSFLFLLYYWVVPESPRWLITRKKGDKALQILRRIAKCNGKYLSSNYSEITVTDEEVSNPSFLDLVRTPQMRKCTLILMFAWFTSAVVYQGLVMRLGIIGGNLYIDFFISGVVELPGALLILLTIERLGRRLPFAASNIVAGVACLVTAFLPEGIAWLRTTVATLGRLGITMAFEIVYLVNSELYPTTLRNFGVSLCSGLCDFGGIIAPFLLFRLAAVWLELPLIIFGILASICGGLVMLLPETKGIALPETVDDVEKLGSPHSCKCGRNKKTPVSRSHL

OCT1 [3] = biological target: T1, OCT1; assay: Uptake in HEK293 cells overexpressing OCT1; type: in vitro ADME; conditions: for P, OCT1 / Vmax, OCT1 / P (non-saturable clearance parameter), OCT1 / Vmax (maximum uptake rate), OCT1 / Km: HEK293-OCT1, 0.1–1000 μM; for Vmax (maximum uptake rate), OCT1: estimate ± standard error (n = 6); for Km: read-out: Km (Michaelis-Menten constant), OCT1; for Time dependent uptake in HEK-OCT1 cells versus empty vector controls (HEK-P5): 5 μM MPP+ or 50 μM metformin, 1–30 min
OCT2 [4] = biological target: T2, OCT2; conditions: 50 μM compound, 5 μM MPP+, biguanide vs parent amine
OCT1 [5] = biological target: T1, OCT1; assay: Inhibition of [3H]-MPP+ uptake in HEK293 cells expressing OCT1; type: cell-based; conditions: 50 μM compound, 5 μM MPP+, biguanide vs parent amine
OCT2 [6] = biological target: T2, OCT2; assay: Inhibition of [14C]-metformin uptake in HEK293 cells expressing OCT2; type: cell-based; conditions: for inhibition at 50 μM: human, HEK293 cells expressing OCT2
[7] = cited from earlier work
[8] = 50 μM compound, 50 μM metformin

Q: For `N=C(N)NC(=N)NCCCc1ccccc1` [2c, 1-(3-Phenylpropyl)-biguanide HCl], which inhibition at 50 μM (OCT1 [1]; human, HEK293 cells expressing OCT1) is on record?
A: Its inhibition at 50 μM is ≥ 50%.

Q: Which “P, OCT2” value (OCT2 [2]) does the source give for `N=C(N)NC(=N)NCC(c1ccccc1)c1ccccc1` [2f, 2,2-Diphenylethyl-biguanide] here?
A: The value was 0.6 fl/min/mg protein.

Q: What about the “Vmax, OCT2” value (OCT2 [2]) of the same compound?
A: Its value is 1.8 pmol/min/mg protein.

Q: What about the “P (non-saturable clearance parameter), OCT2” value (OCT2 [2]; 10 min) of the same compound?
A: Its value is 6e-10 ± 3e-10 µL/min/mg.

Q: And the “Vmax (maximum uptake rate), OCT2” value (OCT2 [2]; 10 min)?
A: The value was 1.8 ± 0.2 pmol/mg/min.

Q: What about the Km (OCT2 [2]; 10 min) of the same compound?
A: Its Km is 12.4 µM and 12 µM.

Q: And the OCT3 substrate (OCT3)?
A: Its OCT3 substrate is “either none or very weak substrates”.

Q: What about the “P, OCT1” value (OCT1 [3]) of the same compound?
A: Its value is 1.7 fl/min/mg protein.

Q: And the “Vmax, OCT1” value (OCT1 [3])?
A: Its value is 2.0 pmol/min/mg protein.

Q: What about the “P (non-saturable clearance parameter), OCT1” value (OCT1 [3]; 10 min) of the same compound?
A: Its value is 1.7e-09 ± 2e-10 µL/min/mg.

Q: What about the “Vmax (maximum uptake rate), OCT1” value (OCT1 [3]; 10 min) of the same compound?
A: The value was 2.0 ± 0.1 pmol/mg/min.

Q: And the Km (OCT1 [3]; 10 min)?
A: The Km was 14.2 µM and 14 µM.

Q: Which “Change of inhibition of OCT2-mediated uptake of MPP+ upon addition of the biguanide moiety” value (OCT2 [4]) does the source give for `N=C(N)NC(=N)NCCc1ccc(-c2ccccc2)cc1` [2g, 2-(4-Biphenyl)ethyl-biguanide] here?
A: Its value is “less inhibition”.

Q: What does the source list for `N=C(N)NC(=N)NCCOc1ccccc1` [2h, 1-(2-Phenoxyethyl)-biguanide]?
A: Change of inhibition of OCT1-mediated uptake of MPP+ upon addition of the biguanide moiety (OCT1 [5]): increased inhibition; inhibition at 50 μM (OCT2 [6]): ≥ 50%

Q: What does the source list for `Cl.N=C(N)NC(=N)NC1Cc2ccccc2C1` [2j, 2,3-Dihydro-1H-inden-2-yl-biguanide HCl]?
A: P, OCT2 (OCT2 [2]): 0.1 fl/min/mg protein; Vmax, OCT2 (OCT2 [2]): 1.1 pmol/min/mg protein; P (non-saturable clearance parameter), OCT2 (OCT2 [2]; 10 min): 1e-10 ± 5e-11 µL/min/mg; Vmax (maximum uptake rate), OCT2 (OCT2 [2]; 10 min): 1.1 ± 0.04 pmol/mg/min; Km (OCT2 [2]; 10 min): 31.7 µM and 32 µM; OCT3 substrate (OCT3): either none or very weak substrates; Uptake fold ratio in OCT3 cells (OCT3; single concentration): significant increase; Inhibition of metformin transport in HEK-OCT1 cells (OCT1 [1]; [8]): ≥ 50%; P, OCT1 (OCT1 [3]): 0.6 fl/min/mg protein; Vmax, OCT1 (OCT1 [3]): 0.3 pmol/min/mg protein; P (non-saturable clearance parameter), OCT1 (OCT1 [3]; 10 min): 6e-10 ± 8e-11 µL/min/mg; Vmax (maximum uptake rate), OCT1 (OCT1 [3]; 10 min): 0.3 ± 0.05 pmol/mg/min; Km (OCT1 [3]; 10 min): 16.9 µM and 17 µM; Inhibition of metformin transport in HEK-OCT2 cells (OCT2 [6]; [8]): ≥ 50%

Q: With `N=C(NN)Nc1ccc(C(=O)O)cc1` [2m, p-(3-Aminoguanidino)-benzoic Acid] as the compound, how does the “Inhibition of OCT1 mediated metformin uptake” value (OCT1 [1]; [8]) read?
A: The value was “inhibited”.

Q: What about the “Inhibition of OCT2 mediated metformin uptake” value (OCT2 [6]; [8]) of the same compound?
A: The value was “only inhibited OCT1”.

Q: What does the source list for `C[n+]1ccc(-c2ccccc2)cc1` [MPP^+, 1-methyl-4-phenylpyridinium, reference compound]?
A: Time dependent uptake in HEK-OCT2 cells versus empty vector controls (HEK-P5) (OCT2 [2]): higher; Time dependent uptake in HEK-OCT1 cells versus empty vector controls (HEK-P5) (OCT1 [3]): higher

Q: Which “Time dependent uptake in HEK-OCT2 cells versus empty vector controls (HEK-P5)” value (OCT2 [2]) does the source give for `CN(C)C(=N)N=C(N)N` [metformin, reference compound] here?
A: The value was “higher”.

Q: And the “Time dependent uptake in HEK-OCT1 cells versus empty vector controls (HEK-P5)” value (OCT1 [3])?
A: The value was “higher”.

Q: What does the source list for `[H]/N=C(/N)N/C(=N/[H])NCCc1ccccc1` [phenformin, reference compound]?
A: Change of inhibition of OCT2-mediated uptake of MPP+ upon addition of the biguanide moiety (OCT2 [4]): less inhibition; Change of inhibition of OCT1-mediated uptake of MPP+ upon addition of the biguanide moiety (OCT1 [5]): increased inhibition; OCT2 substrate (fold uptake increase of 1.5 and greater over HEK-P5) (OCT2 [2]; 100 μM, 10 min, HEK-OCT2 vs empty vector): substrates; OCT1 substrate (fold uptake increase of 1.5 and greater over HEK-P5) (OCT1 [3]; 100 μM, 10 min, HEK-OCT1 vs empty vector): substrates; inhibition at 50 μM (OCT2 [6]): ≥ 50%

Q: Which Oral bioavailability [7] does the source give for `CC(C)[C@H](N)C(=O)OCCOCn1cnc2c(=O)[nH]c(N)nc21` [valacyclovir] here?
A: Its Oral bioavailability is 50%.
